{
  "source": "PubChem BioAssay AID1259409",
  "about": "(Chemical Carcinogenesis Research Information System (CCRIS), 2018)",
  "origin": "cited, not measured here",
  "system": "rodent chemically induced tumor inhibition, incidence and multiplicity",
  "assay": "CCRIS tumor inhibitor studies",
  "conditions": "Route [Inhibitor]: ORAL, Species: RAT; for tumour outcome (control, treated, inhibition, significance): Promoter: NONE USED",
  "data": [
    {"molecule": "CC(=O)OC/C=C(C)/C=C/C=C(C)/C=C/C1=C(C)CCCC1(C)C", "values": [
      {"measurement": "outcome", "setting": "Carcinogen: N-BIS-(2-HYDROXYPROPYL)NITROSAMINE [53609-64-6], Dose [Inhibitor]: 0, 0.1% IN DIET 4 WK BEGINNING 1 WK POST CARCINOGEN DOSE (STUDY DURATION: 5 WK), Strain/Sex: F344/DUCRJ/MALE, Target Tissue: Type of Lesion: THYROID GLAND: ADENOMATOUS GROWTH PATTERN, Dose [Carcinogen]: 2800 MG/KG BW ONCE (STUDY DURATION: 5 WK), Promoter: NONE", "result": "0%, 0%, 0%, not significant"},
      {"measurement": "tumour outcome (control, treated, inhibition, significance)", "setting": "Carcinogen: N-METHYL-N-NITROSOUREA, 684-93-5, Dose [Inhibitor]: 0, 328 MG/KG DIET FOR 88 D BEGINNING 2 D POST CARCINOGEN DOSE (STUDY DURATION: 90 D), Strain/Sex: SPRAGUE-DAWLEY/FEMALE, Target Tissue: Type of Lesion: MAMMARY GLAND: ADENOCARCINOMA, Dose [Carcinogen]: 45 MG/KG BW ONCE", "result": "100%, 73%, 27%, p<0.05"},
      {"measurement": "tumour outcome (control, treated, inhibition, significance)", "setting": "Carcinogen: N-METHYL-N-NITROSOUREA, 684-93-5, Dose [Inhibitor]: 0, 328 MG/KG OF DIET BEGINNING 2 D POST CARCINOGEN DOSE AND CONTINUING FOR DURATION OF STUDY (STUDY DURATION: 90 D), Strain/Sex: SPRAGUE-DAWLEY/FEMALE, Target Tissue: Type of Lesion: MAMMARY GLAND: ADENOCARCINOMA, Dose [Carcinogen]: 45 MG/KG BW ONCE AT 50 D OF AGE", "result": "100%, 80%, 20%, not calculated"},
      {"measurement": "tumour outcome (control, treated, inhibition, significance)", "setting": "Carcinogen: N-METHYL-N-NITROSOUREA, 684-93-5, Dose [Inhibitor]: 0, 328 MG/KG OF DIET FOR DURATION OF STUDY BEGINNING 1 WK PRIOR TO CARCINOGEN TREATMENT (STUDY DURATION: 117 D), Strain/Sex: SPRAGUE-DAWLEY /FEMALE, Target Tissue: Type of Lesion: MAMMARY GLAND: ADENOCARCINOMA, Dose [Carcinogen]: 50 MG/KG BW ONCE", "result": "100%, 84%, 16%, not significant"},
      {"measurement": "tumour outcome (control, treated, inhibition, significance)", "setting": "Carcinogen: N-METHYL-N-NITROSOUREA, 684-93-5, Dose [Inhibitor]: 0.8 MMOL/KG DIET DAILY STARTING 12 D AFTER CARCINOGEN TREATMENT THROUGH ABOUT 8 MO AFTER FIRST CARCINOGEN DOSE (STUDY DU, Strain/Sex: F344/MALE, Target Tissue: Type of Lesion: COLON: ADENOCARCINOMA, Dose [Carcinogen]: 2.5 MG 1/WK FOR 2 WK", "result": "5/39 (13%), 4/29 (14%), -8%, not significant"},
      {"measurement": "tumour outcome (control, treated, inhibition, significance)", "setting": "Carcinogen: N-METHYL-N-NITROSOUREA, 684-93-5, Dose [Inhibitor]: 0.8 MMOL/KG DIET DAILY STARTING 12 D AFTER CARCINOGEN TREATMENT THROUGH ABOUT 8 MO AFTER FIRST CARCINOGEN DOSE (STUDY DU, Strain/Sex: F344/MALE, Target Tissue: Type of Lesion: COLON: ADENOMA, Dose [Carcinogen]: 2.5 MG 1/WK FOR 2 WK", "result": "16/39 (41%), 9/29 (31%), 24%, not significant"},
      {"measurement": "tumour outcome (control, treated, inhibition, significance)", "setting": "Carcinogen: N-METHYL-N-NITROSOUREA, 684-93-5, Dose [Inhibitor]: 1.0 MM IN DIET DAILY (328 MG/KG DIET) STARTING D 60 OF AGE UNTIL END OF STUDY (STUDY DURATION: 4 MO), Strain/Sex: SPRAGUE-DAWLEY/FEMALE, Target Tissue: Type of Lesion: MAMMARY GLAND: CARCINOMA, Dose [Carcinogen]: 2.5 MG/100 G BODY WEIGHT IN 0.9% NACL SOLUTION ADMINISTERED AT D 50 AND 57 OF AGE", "result": "87%, 54%, 38%, p<0.01"},
      {"measurement": "tumour outcome (control, treated, inhibition, significance)", "setting": "Carcinogen: N-METHYL-N-NITROSOUREA, 684-93-5, Dose [Inhibitor]: 1 MMOL/KG DIET DAILY STARTING 3 D AFTER LAST CARCINOGEN DOSE THROUGH END OF STUDY (STUDY DURATION: 129 D), Strain/Sex: SPRAGUE-DAWLEY/FEMALE, Target Tissue: Type of Lesion: MAMMARY GLAND: TUMOR, Dose [Carcinogen]: 50 MG/KG BW AT BOTH 50 AND 57 D OF AGE", "result": "17/17 (100%), 12/18 (67%), 33%, p<0.001"},
      {"measurement": "tumour outcome (control, treated, inhibition, significance)", "setting": "Carcinogen: N-METHYL-N-NITROSOUREA, 684-93-5, Dose [Inhibitor]: 1 MMOL/KG DIET DAILY STARTING 3 D AFTER LAST CARCINOGEN DOSE THROUGH END OF STUDY (STUDY DURATION: 182 D), Strain/Sex: SPRAGUE-DAWLEY/FEMALE, Target Tissue: Type of Lesion: MAMMARY GLAND: TUMOR, Dose [Carcinogen]: 15 MG/KG BW AT BOTH 50 AND 57 D OF AGE", "result": "12/40 (30%), 5/39 (13%), 57%, not significant"},
      {"measurement": "tumour outcome (control, treated, inhibition, significance)", "setting": "Carcinogen: N-METHYL-N-NITROSOUREA, 684-93-5, Dose [Inhibitor]: 2 MMOL/KG DIET DAILY STARTING 3 D AFTER LAST CARCINOGEN DOSE THROUGH END OF STUDY (STUDY DURATION: 129 D), Strain/Sex: SPRAGUE-DAWLEY/FEMALE, Target Tissue: Type of Lesion: MAMMARY GLAND: TUMOR, Dose [Carcinogen]: 50 MG/KG BW AT BOTH 50 AND 57 D OF AGE", "result": "17/17 (100%), 2/16 (13%), 87%, p<0.001"},
      {"measurement": "tumour outcome (control, treated, inhibition, significance)", "setting": "Carcinogen: N-METHYL-N-NITROSOUREA, 684-93-5, Dose [Inhibitor]: 2 MMOL/KG DIET DAILY STARTING 3 D AFTER LAST CARCINOGEN DOSE THROUGH END OF STUDY (STUDY DURATION: 182 D), Strain/Sex: SPRAGUE-DAWLEY/FEMALE, Target Tissue: Type of Lesion: MAMMARY GLAND: TUMOR, Dose [Carcinogen]: 15 MG/KG BW AT BOTH 50 AND 57 D OF AGE", "result": "12/40 (30%), 0/40 (0%), 100%, p<0.001"},
      {"measurement": "tumour outcome (control, treated, inhibition, significance)", "setting": "Carcinogen: N-METHYL-N-NITROSOUREA, 684-93-5, Dose [Inhibitor]: 300 MG/KG OF DIET DAILY STARTING 7 D AFTER CARCINOGEN TREATMENT AND CONTINUING FOR DURATION OF STUDY (STUDY DURATION: 13, Strain/Sex: SPRAGUE-DAWLEY/FEMALE, Target Tissue: Type of Lesion: MAMMARY GLAND: ADENOCARCINOMA, Dose [Carcinogen]: 50 MG/KG BW IN 0.9% SALINE ONCE AT 50 D OF AGE", "result": "25/25 (100%), 23/25 (92%), 8%, not significant"},
      {"measurement": "tumour outcome (control, treated, inhibition, significance)", "setting": "Carcinogen: N-METHYL-N-NITROSOUREA, 684-93-5, Dose [Inhibitor]: 328 MG/KG DIET DAILY FOR 4 MO STARTING 10 D AFTER START OF CARCINOGEN TREATMENT AND CONTINUING FOR DURATION OF STUDY (ST, Strain/Sex: SPRAGUE-DAWLEY/FEMALE, Target Tissue: Type of Lesion: MAMMARY GLAND: ADENOCARCINOMA, Dose [Carcinogen]: 2.5 MG/100 G BW IN 0.9% SALINE AND ACIDIFIED (PH 4 TO 5) WITH ACETIC ACID AT AGES 50 AND 57 D", "result": "88%, 53%, 40%, p<0.01"},
      {"measurement": "tumour outcome (control, treated, inhibition, significance)", "setting": "Carcinogen: N-METHYL-N-NITROSOUREA, 684-93-5, Dose [Inhibitor]: 328 MG/KG IN DIET BEGINNING AT D 60 (STUDY DURATION: 129 D), Strain/Sex: SPRAGUE-DAWLEY/FEMALE, Target Tissue: Type of Lesion: MAMMARY GLAND: TUMOR, Dose [Carcinogen]: 2.5 MG/100 G AT 50 AND 57 D OF AGE", "result": "22/30 (73%), 11/30 (37%), 49%, p<0.005"},
      {"measurement": "tumour outcome (control, treated, inhibition, significance)", "setting": "Carcinogen: N-METHYL-N-NITROSOUREA, 684-93-5, Dose [Inhibitor]: 328 MG/KG IN DIET BEGINNING AT D 60 (STUDY DURATION: 175 D), Strain/Sex: SPRAGUE-DAWLEY/FEMALE, Target Tissue: Type of Lesion: MAMMARY GLAND: TUMOR, Dose [Carcinogen]: 1.25 MG/100 G BODY WEIGHT IN 0.9% NACL SOLUTION ADMINISTERED AT D 50 AND 57 OF AGE", "result": "8/30 (27%), 3/30 (10%), 63%, p<0.01"},
      {"measurement": "tumour outcome (control, treated, inhibition, significance)", "setting": "Dose [Inhibitor]: 3 UMOL/G DIET, Strain/Sex: SPRAGUE-DAWLEY/FEMALE, Target Tissue: Type of Lesion: LIVER: TUMOR, Dose [Carcinogen]: 1 PPM IN DIET", "result": "76%, 79%, -4%, not calculated"},
      {"measurement": "tumour outcome (control, treated, inhibition, significance)", "setting": "Dose [Inhibitor]: 3 UMOL/G DIET, Strain/Sex: SPRAGUE-DAWLEY/MALE, Target Tissue: Type of Lesion: LIVER: TUMOR, Dose [Carcinogen]: 1 PPM IN DIET", "result": "89%, 88%, 1%, not calculated"},
      {"measurement": "tumour outcome (control, treated, inhibition, significance)", "setting": "Dose [Inhibitor]: 30 UMOL/G DIET, Strain/Sex: SPRAGUE-DAWLEY/FEMALE, Target Tissue: Type of Lesion: LIVER: TUMOR, Dose [Carcinogen]: 1 PPM IN DIET", "result": "76%, 84%, -11%, not calculated"},
      {"measurement": "tumour outcome (control, treated, inhibition, significance)", "setting": "Dose [Inhibitor]: 30 UMOL/G DIET, Strain/Sex: SPRAGUE-DAWLEY/MALE, Target Tissue: Type of Lesion: LIVER: TUMOR, Dose [Carcinogen]: 1 PPM IN DIET", "result": "89%, 92%, -3%, not calculated"}
    ]}
  ]
}
